Reference: US7008943B2, “1-(Pyrrolidin-1-ylmethyl)-3-(pyrrol-2-ylmethylidene)-2-indolinone derivatives” (Pharmacia & Upjohn Company, priority 2000, dated 2006)

What was measured:
[1] = Aqueous solubility of prodrug versus parent compound; assay type: physicochemical; details: versus parent compound (II)
Text: The prodrug compounds of the present invention have advantages over compounds of Formula (II) by virtue of improved aqueous solubility and formulability. […] It is contemplated that similar enhanced solubility will be observed for other compounds of Formula (I) carrying the pyrrolidin-1-ylmethyl moiety at the nitrogen of the indolinone ring. A general description of the advantages and uses of prodrugs as pharmaceutically useful compounds is given in an article by Waller and George in Br. J Clin. Pharmac., Vol. 28, pp. 497–507, 1989.

[2] = Plasma Stability Test: conversion of prodrug to drug after IV administration to dogs, HPLC analysis of blood plasma; assay type: in vivo; details: IV at 2 mg/mL, blood plasma followed by HPLC for 4 hours following dosing
Method: The prodrug (3Z)-3-[(3,5-dimethyl-1H-pyrrol-2-yl)-methylidene]-1-(1-pyrrolidinylmethyl)-1,3-dihydro-2H-indol-2-one was administered IV at 2 mg/mL to dogs. Levels of both prodrug and drug (3(Z)-3-[(3,5-dimethyl-1H-pyrrol-2-yl)-methylidene]-1,3-dihydro-2H-indol-2-one) were followed by HPLC analysis of blood plasma for 4 hours following dosing.

With `Cc1cc(C)c(/C=C2\C(=O)N(CN3CCCC3)c3ccccc32)[nH]1` [Example 1, (3Z)-3-[(3,5-Dimethyl-1H-pyrrol-2-yl)-methylidene]-1-(1-pyrrolidinylmethyl)-1,3-dihydro-2H-indol-2-one] the “aqueous solubility compared with the parent compound” value [1] was “increased aqueous solubility”, the “half-life for conversion of the prodrug to drug” value [2] was 7.3 min and the “prodrug converted into drug (from area under the curve of drug concentration vs. time)” value [2] was 80%.
